Reference: patent US8029764B2, “Methods for detection of colorectal cancer” (The Johns Hopkins University, priority 2001, dated 2011)

Tested on: colorectal tissue transcripts
Assay: SAGE of normal, adenoma and cancer colorectal tissue (transcript tag counts)
Parameters: species or system human
Outline: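 Tag counts reflect transcript abundance, each mRNA represented by a 15-base tag near its 3′ end. Excluding MHC tags, linkers and duplicate ditags, libraries were compared statistically: two each of normal epithelium, FAP-derived adenomas (>70% neoplastic) and carcinomas.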

[1] = normal colorectal tissue library 1
[2] = normal colorectal tissue library 2

GATGAATCCG (chemistry not fully specified)
AD1 (SAGE tag count) (SAGE library AD1): 2
AD2 (SAGE tag count) (SAGE library AD2): 2
CA1 (SAGE tag count) (SAGE library CA1): 1
CA2 (SAGE tag count) (SAGE library CA2): 2
NC1 (SAGE tag count) (SAGE library NC1): 12
NC2 (SAGE tag count) (SAGE library NC2): 14

CTGGCAAAGG (chemistry not fully specified)
AD1 (SAGE tag count) (SAGE library AD1): 1
AD2 (SAGE tag count) (SAGE library AD2): 0
CA1 (SAGE tag count) (SAGE library CA1): 0
CA2 (SAGE tag count) (SAGE library CA2): 0
NC1 (SAGE tag count) (SAGE library NC1): 14
NC2 (SAGE tag count) (SAGE library NC2): 22

GCCATCCTCC (chemistry not fully specified)
AD1 (SAGE tag count) (SAGE library AD1): 0
AD2 (SAGE tag count) (SAGE library AD2): 1
CA1 (SAGE tag count) (SAGE library CA1): 0
CA2 (SAGE tag count) (SAGE library CA2): 0
NC1 (SAGE tag count) (SAGE library NC1): 9
NC2 (SAGE tag count) (SAGE library NC2): 13

ACGGTCCAGG (chemistry not fully specified)
AD1 (SAGE tag count) (SAGE library AD1): 0
AD2 (SAGE tag count) (SAGE library AD2): 0
CA1 (SAGE tag count) (SAGE library CA1): 0
CA2 (SAGE tag count) (SAGE library CA2): 1
NC1 (SAGE tag count) (SAGE library NC1): 5
NC2 (SAGE tag count) (SAGE library NC2): 12

ATGTGCGTGG (chemistry not fully specified)
AD1 (SAGE tag count) (SAGE library AD1): 11
AD2 (SAGE tag count) (SAGE library AD2): 3
CA1 (SAGE tag count) (SAGE library CA1): 7
CA2 (SAGE tag count) (SAGE library CA2): 7
NC1 (SAGE tag count) (SAGE library NC1): 38
NC2 (SAGE tag count) (SAGE library NC2): 8

GGGAAGCAGA (chemistry not fully specified)
AD1 (SAGE tag count) (SAGE library AD1): 18
AD2 (SAGE tag count) (SAGE library AD2): 4
CA1 (SAGE tag count) (SAGE library CA1): 8
CA2 (SAGE tag count) (SAGE library CA2): 9
NC1 (SAGE tag count) (SAGE library NC1): 32
NC2 (SAGE tag count) (SAGE library NC2): 17

TCGGAGCTGT (chemistry not fully specified)
AD1 (SAGE tag count) (adenoma library 1): 9
AD2 (SAGE tag count) (adenoma library 2): 6
CA1 (SAGE tag count) (cancer library 1): 3
CA2 (SAGE tag count) (cancer library 2): 0
NC1 (SAGE tag count) [1]: 21
NC2 (SAGE tag count) [2]: 20

CTGAACCTCC (chemistry not fully specified)
AD1 (SAGE tag count) (SAGE library AD1): 2
AD2 (SAGE tag count) (SAGE library AD2): 0
CA1 (SAGE tag count) (SAGE library CA1): 0
CA2 (SAGE tag count) (SAGE library CA2): 0
NC1 (SAGE tag count) (SAGE library NC1): 5
NC2 (SAGE tag count) (SAGE library NC2): 15

TGATCTCTGT (chemistry not fully specified)
AD1 (SAGE tag count) (adenoma library 1): 1
AD2 (SAGE tag count) (adenoma library 2): 0
CA1 (SAGE tag count) (cancer library 1): 1
CA2 (SAGE tag count) (cancer library 2): 1
NC1 (SAGE tag count) [1]: 6
NC2 (SAGE tag count) [2]: 7

AATCACAAAT (chemistry not fully specified)
AD1 (SAGE tag count) (SAGE library AD1): 1
AD2 (SAGE tag count) (SAGE library AD2): 4
CA1 (SAGE tag count) (SAGE library CA1): 14
CA2 (SAGE tag count) (SAGE library CA2): 3
NC1 (SAGE tag count) (SAGE library NC1): 18
NC2 (SAGE tag count) (SAGE library NC2): 45

GCCGACCAGG (chemistry not fully specified)
AD1 (SAGE tag count) (SAGE library AD1): 15
AD2 (SAGE tag count) (SAGE library AD2): 8
CA1 (SAGE tag count) (SAGE library CA1): 19
CA2 (SAGE tag count) (SAGE library CA2): 9
NC1 (SAGE tag count) (SAGE library NC1): 46
NC2 (SAGE tag count) (SAGE library NC2): 47

GCCGTGGAGA (chemistry not fully specified)
AD1 (SAGE tag count) (SAGE library AD1): 4
AD2 (SAGE tag count) (SAGE library AD2): 11
CA1 (SAGE tag count) (SAGE library CA1): 7
CA2 (SAGE tag count) (SAGE library CA2): 7
NC1 (SAGE tag count) (SAGE library NC1): 32
NC2 (SAGE tag count) (SAGE library NC2): 23

CTTCTTGCCC (chemistry not fully specified)
AD1 (SAGE tag count) (SAGE library AD1): 2
AD2 (SAGE tag count) (SAGE library AD2): 2
CA1 (SAGE tag count) (SAGE library CA1): 0
CA2 (SAGE tag count) (SAGE library CA2): 1
NC1 (SAGE tag count) (SAGE library NC1): 29
NC2 (SAGE tag count) (SAGE library NC2): 2

CTTCCAGCTA (chemistry not fully specified)
AD1 (SAGE tag count) (SAGE library AD1): 22
AD2 (SAGE tag count) (SAGE library AD2): 20
CA1 (SAGE tag count) (SAGE library CA1): 14
CA2 (SAGE tag count) (SAGE library CA2): 19
NC1 (SAGE tag count) (SAGE library NC1): 64
NC2 (SAGE tag count) (SAGE library NC2): 31

CTCAGAACTT (chemistry not fully specified)
AD1 (SAGE tag count) (SAGE library AD1): 1
AD2 (SAGE tag count) (SAGE library AD2): 0
CA1 (SAGE tag count) (SAGE library CA1): 0
CA2 (SAGE tag count) (SAGE library CA2): 0
NC1 (SAGE tag count) (SAGE library NC1): 18
NC2 (SAGE tag count) (SAGE library NC2): 3

GGAGGCGCTC (chemistry not fully specified)
AD1 (SAGE tag count) (SAGE library AD1): 1
AD2 (SAGE tag count) (SAGE library AD2): 1
CA1 (SAGE tag count) (SAGE library CA1): 0
CA2 (SAGE tag count) (SAGE library CA2): 1
NC1 (SAGE tag count) (SAGE library NC1): 5
NC2 (SAGE tag count) (SAGE library NC2): 11

TGCTCCTACC (chemistry not fully specified; the letters are possibly those of the target site)
AD1 (SAGE tag count) (adenoma library 1): 70
AD2 (SAGE tag count) (adenoma library 2): 22
CA1 (SAGE tag count) (cancer library 1): 17
CA2 (SAGE tag count) (cancer library 2): 22
NC1 (SAGE tag count) [1]: 140
NC2 (SAGE tag count) [2]: 113

CTGGATCTGG (chemistry not fully specified; the letters are possibly those of the target site)
AD1 (SAGE tag count) (SAGE library AD1): 3
AD2 (SAGE tag count) (SAGE library AD2): 9
CA1 (SAGE tag count) (SAGE library CA1): 5
CA2 (SAGE tag count) (SAGE library CA2): 10
NC1 (SAGE tag count) (SAGE library NC1): 21
NC2 (SAGE tag count) (SAGE library NC2): 21

CGAGGGGCCA (chemistry not fully specified)
AD1 (SAGE tag count) (SAGE library AD1): 18
AD2 (SAGE tag count) (SAGE library AD2): 18
CA1 (SAGE tag count) (SAGE library CA1): 12
CA2 (SAGE tag count) (SAGE library CA2): 32
NC1 (SAGE tag count) (SAGE library NC1): 110
NC2 (SAGE tag count) (SAGE library NC2): 47
